From patent US9981950B2, “Triazoles as NR2B receptor inhibitors” (Janssen Pharmaceuticals, Inc., priority 2014, dated 2018)

Key:
[1] = target: cloned human NR1/NR2B ion channels (Homo sapiens (Human), UniProt Q05586+Q13224); assay: HNR2BC: calcium influx assay on cloned human NR1/NR2B ion channels expressed in HEK cells; format: cell-based; details: HEK cells hNR1/NR2B, 100 μM glutamate + 100 μM glycine, 3 parameter plot
Experimental: HNR2BC: Effects of Test Articles on Cloned Human NR1/NR2B Ion Channels Expressed in Mammalian Cells
The ability of test compounds to act as an antagonist of NR1/NR2B were evaluated with a calcium influx assay (Calcium 5 Assay Kit, Molecular Devices).
For the antagonist assessment, NR1/NR2B was activated with the positive control agonist (Mg^2+-free HBPS+100 μM glutamic acid+100 μM glycine). The effect of each test article to inhibit the signal was examined after agonist stimulation and compared to the positive control antagonist (MK-801).
A HEK cell line, stable transfected with hNR1/NR2B was used. This tetracycline inducible cell line is transfected with GRIN1 (GeneBank accession number NM 007327.2) and GRIN2B (GeneBank accession number NM_000834.3.). The cells were cultured in cell culture flasks with DMEM/F12 supplemented with 10% FCS, 1% PenStrep and a selection of additional antibiotics.
Forty-Eight (48) hours before the assay the cells were plated into 96-well black well, flat clear bottom microtiter plates at a density of 50000 cells/well. Twenty-Four (24) hours later the receptor expression was induced by the addition of 1 μg/ml tetracycline in the presence of 2 mM ketamine and 200 μM 7-CKA. After 24 h of receptor induction the plates were used for the assay.
The medium was removed and the cells were loaded with 200 μl loading buffer (Molecular Devices) in Mg2+-free HBPS containing 100 μM 7-CKA at 37° C. for one (1) hour.
The test compounds were then solubilized in 100% DMSO and diluted to yield eight (8) different concentrations in 100% DMSO. A 96 well drug plate was prepared by diluting with water and glycine/glutamate to a 5-fold of final test concentration. Fluorescence intensity of the cells in the plate was measured in a FlexStation using an excitation wavelength of 485 nm and an emission wavelength of 525 nm. Twenty (20) seconds after starting the recordings the compounds together with the agonists glycine (100 μM) and glutamate (100 μM) were added into the wells and the fluorescence measured for ninety (90) seconds in summary.
The IC50 values provided in the paragraph below were determined using a 3 parameter plot.

hERG-receptor = hERG-receptor (Homo sapiens (Human), UniProt Q12809); assay: HERGBD: inhibition of specific 3H-Dofetilide binding to the hERG-receptor; details: HEK cell membranes with human ERG, Hill-plot 2-parameter-model
Sequence of hERG-receptor (Q12809 whole entry): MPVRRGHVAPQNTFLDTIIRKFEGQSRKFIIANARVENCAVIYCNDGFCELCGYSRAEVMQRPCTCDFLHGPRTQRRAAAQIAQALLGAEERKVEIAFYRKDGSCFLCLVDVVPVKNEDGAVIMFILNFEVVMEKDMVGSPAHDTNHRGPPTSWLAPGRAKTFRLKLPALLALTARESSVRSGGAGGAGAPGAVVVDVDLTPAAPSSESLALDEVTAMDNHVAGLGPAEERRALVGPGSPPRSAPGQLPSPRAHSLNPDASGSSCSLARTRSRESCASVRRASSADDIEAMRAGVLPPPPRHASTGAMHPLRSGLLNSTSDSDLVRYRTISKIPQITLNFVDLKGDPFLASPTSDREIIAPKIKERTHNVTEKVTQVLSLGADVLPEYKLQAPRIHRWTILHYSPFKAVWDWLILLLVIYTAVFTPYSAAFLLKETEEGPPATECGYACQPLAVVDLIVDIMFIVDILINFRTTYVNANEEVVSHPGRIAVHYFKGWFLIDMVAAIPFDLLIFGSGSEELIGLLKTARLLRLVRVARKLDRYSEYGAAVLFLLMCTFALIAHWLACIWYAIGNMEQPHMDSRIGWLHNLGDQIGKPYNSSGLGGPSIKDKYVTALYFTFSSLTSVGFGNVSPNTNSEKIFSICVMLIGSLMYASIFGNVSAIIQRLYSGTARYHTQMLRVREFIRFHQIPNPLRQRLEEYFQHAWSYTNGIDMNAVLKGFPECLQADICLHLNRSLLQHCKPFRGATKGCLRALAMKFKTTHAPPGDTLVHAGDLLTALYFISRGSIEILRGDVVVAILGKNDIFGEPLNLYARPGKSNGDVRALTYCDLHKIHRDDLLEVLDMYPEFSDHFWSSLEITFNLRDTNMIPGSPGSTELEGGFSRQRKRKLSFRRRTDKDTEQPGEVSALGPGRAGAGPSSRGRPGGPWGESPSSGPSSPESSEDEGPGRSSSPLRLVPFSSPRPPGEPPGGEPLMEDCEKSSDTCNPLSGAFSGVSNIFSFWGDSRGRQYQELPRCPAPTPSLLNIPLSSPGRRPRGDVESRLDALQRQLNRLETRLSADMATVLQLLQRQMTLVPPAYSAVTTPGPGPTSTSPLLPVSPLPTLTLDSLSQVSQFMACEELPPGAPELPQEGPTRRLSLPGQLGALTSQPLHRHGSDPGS
Method in brief: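 Membranes from HEK cells stably expressing human ERG incubated 90 min at RT with 1.5 nmol/l 3H-dofetilide in 20 mM HEPES/0.1 mM KCl pH 7.2, inhibitor in 1% DMSO. Nonspecific binding with […] dofetilide; bound ligand separated by filtration and scintillation counted.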

rat NR1/NR2B receptor = rat NR1/NR2B receptor (Rattus norvegicus (Rat), UniProt P35439+Q00960); assay: RRNR2BB: inhibition of specific binding to the rat NR1/NR2B receptor; details: [3H]-Ifenprodil binding, rat brain membranes, Hill-plot 2-parameter-model
Sequence of rat NR1/NR2B receptor (Q00960 27-1482, other chains not shown): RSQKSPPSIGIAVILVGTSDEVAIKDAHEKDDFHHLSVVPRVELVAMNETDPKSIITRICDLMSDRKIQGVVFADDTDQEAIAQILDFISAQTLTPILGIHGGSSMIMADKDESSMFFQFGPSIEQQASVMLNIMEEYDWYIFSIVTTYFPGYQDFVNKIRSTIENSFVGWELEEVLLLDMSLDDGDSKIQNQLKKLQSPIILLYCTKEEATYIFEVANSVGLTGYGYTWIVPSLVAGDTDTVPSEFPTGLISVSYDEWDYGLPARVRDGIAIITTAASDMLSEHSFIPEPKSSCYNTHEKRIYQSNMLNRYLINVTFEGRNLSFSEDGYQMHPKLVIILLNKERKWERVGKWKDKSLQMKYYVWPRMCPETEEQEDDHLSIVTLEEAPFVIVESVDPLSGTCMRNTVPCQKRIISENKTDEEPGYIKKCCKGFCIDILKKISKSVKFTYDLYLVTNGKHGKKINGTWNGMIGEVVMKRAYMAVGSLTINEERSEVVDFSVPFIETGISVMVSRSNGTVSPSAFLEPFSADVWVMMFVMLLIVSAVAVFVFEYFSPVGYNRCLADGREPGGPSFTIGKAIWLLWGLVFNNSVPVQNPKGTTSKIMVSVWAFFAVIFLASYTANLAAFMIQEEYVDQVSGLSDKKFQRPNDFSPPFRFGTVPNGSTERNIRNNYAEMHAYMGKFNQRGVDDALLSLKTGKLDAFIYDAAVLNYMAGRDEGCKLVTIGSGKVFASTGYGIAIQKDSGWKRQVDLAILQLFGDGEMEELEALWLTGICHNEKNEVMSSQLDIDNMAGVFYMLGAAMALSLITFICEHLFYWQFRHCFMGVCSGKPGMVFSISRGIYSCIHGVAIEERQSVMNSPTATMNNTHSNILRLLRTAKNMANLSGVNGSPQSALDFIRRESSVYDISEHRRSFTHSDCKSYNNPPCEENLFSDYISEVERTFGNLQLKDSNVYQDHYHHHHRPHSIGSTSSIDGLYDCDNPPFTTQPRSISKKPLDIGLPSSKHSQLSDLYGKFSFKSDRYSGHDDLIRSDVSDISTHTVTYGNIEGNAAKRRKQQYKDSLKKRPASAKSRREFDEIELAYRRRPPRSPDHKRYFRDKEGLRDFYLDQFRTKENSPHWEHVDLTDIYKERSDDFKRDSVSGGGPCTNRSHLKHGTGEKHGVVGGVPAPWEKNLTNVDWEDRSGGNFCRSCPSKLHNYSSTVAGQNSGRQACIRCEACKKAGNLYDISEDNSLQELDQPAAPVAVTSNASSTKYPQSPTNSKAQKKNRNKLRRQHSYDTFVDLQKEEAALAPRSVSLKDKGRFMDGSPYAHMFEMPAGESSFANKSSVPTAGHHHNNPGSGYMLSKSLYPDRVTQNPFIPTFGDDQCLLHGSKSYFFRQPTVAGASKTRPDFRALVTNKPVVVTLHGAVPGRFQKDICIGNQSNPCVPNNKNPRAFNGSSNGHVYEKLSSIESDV
Method in brief: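 Washed membranes from male Wistar rat forebrain (whole brain minus cerebellum) in 5 mM Tris/1 mM EDTA pH 7.4 used in ifenprodil-site binding, 60 min at 4° C. Nonspecific binding defined with […] CP101.606; bound separated by filtration on PEI-soaked filters. IC50 from Hill plot, 2-parameter model.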

Sequence of cloned human NR1/NR2B ion channels (Q13224 27-1484, other chains not shown): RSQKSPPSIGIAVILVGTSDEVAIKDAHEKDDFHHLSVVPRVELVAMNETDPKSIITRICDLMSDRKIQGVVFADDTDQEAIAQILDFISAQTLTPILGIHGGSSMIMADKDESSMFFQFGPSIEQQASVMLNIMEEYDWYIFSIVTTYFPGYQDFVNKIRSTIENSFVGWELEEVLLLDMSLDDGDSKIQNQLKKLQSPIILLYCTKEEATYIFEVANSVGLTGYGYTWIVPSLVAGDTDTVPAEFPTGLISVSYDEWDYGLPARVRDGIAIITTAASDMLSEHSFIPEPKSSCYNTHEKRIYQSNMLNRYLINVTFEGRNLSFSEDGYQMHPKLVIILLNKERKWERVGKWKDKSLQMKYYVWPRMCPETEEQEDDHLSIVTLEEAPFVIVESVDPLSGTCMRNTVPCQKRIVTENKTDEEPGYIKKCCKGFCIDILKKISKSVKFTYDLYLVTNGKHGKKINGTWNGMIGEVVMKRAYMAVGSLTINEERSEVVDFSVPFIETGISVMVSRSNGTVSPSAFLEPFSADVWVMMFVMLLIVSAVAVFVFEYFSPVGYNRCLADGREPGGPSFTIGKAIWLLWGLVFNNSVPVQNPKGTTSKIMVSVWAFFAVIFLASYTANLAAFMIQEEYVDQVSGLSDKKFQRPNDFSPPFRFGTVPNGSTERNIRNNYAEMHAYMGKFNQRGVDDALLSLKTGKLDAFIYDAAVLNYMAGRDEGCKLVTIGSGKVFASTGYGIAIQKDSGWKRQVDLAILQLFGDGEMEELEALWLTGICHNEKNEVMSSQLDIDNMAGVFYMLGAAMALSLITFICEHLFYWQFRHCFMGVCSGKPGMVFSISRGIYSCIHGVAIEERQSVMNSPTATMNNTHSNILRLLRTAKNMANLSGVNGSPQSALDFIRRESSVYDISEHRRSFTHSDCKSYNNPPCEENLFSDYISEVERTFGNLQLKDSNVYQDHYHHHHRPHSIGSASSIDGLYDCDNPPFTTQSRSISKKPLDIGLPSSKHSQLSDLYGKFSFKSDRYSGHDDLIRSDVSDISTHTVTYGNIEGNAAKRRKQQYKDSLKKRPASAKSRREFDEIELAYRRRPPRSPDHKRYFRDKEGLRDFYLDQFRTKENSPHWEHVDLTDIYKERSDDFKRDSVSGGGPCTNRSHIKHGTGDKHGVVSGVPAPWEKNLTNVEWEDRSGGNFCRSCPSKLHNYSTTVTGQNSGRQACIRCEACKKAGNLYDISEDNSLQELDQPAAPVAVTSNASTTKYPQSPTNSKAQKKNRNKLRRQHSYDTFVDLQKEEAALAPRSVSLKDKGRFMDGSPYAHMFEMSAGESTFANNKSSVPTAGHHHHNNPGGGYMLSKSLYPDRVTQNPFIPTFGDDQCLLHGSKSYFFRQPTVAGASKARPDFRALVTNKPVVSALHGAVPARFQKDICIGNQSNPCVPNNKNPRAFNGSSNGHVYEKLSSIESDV

Row | IC50 [1] | IC50 (rat NR1/NR2B receptor) | SMILES | IC50 (hERG-receptor)
1 | 3.42 µM |  | Nc1nccn1Cc1cn(-c2cc(F)cc(C(F)F)c2)nn1 [Example 111, 4-(2-amino-imidazol-1-ylmethyl)-1-(3-fluoro-5-difluoromethyl-phenyl)-1H-[1,2,3]triazole] | 3.29 µM
2 | 22.4 µM | > 5 µM | Cc1ccc(C(=O)c2nccn2Cc2cn(-c3ccc(Cl)cc3)nn2)cc1 [Example 116, [1-[[1-(4-chlorophenyl)triazol-4-yl]methyl]imidazol-2-yl]-(p-tolyl)methanone] | 
3 | 3.17 µM |  | CCc1nccn1Cc1cn(-c2ccc(F)c(Cl)c2)nn1 [Example 42, 1-(3-Chloro-4-fluoro-phenyl)-4-(2-ethyl-imidazol-1-ylmethyl)-1H-[1,2,3]triazole] | 
4 | 10.5 µM |  | Fc1ccc(-n2cc(Cc3cc[nH]n3)nn2)cc1C(F)F [Example 115, 1-(3-difluoromethyl-4-fluoro-phenyl)-4-(1H-pyrazol-3-ylmethyl)-1H-[1,2,3]triazole] | 

Row | SMILES | IC50 [1] | IC50 (rat NR1/NR2B receptor) | IC50 (hERG-receptor)
5 | CC(C)c1nccn1Cc1cn(-c2ccc(Cl)c(OC(F)F)c2)nn1 [Example 97, 1-(4-Chloro-3-difluoromethoxy-phenyl)-4-(2-isopropyl-imidazol-1-ylmethyl)-1H-[1,2,3]triazole] | 0.58 µM |  | 
